Experimental data from PubChem BioAssay AID1259321 (Sanford-Burnham Center for Chemical Genomics, 2017).
Activity calls are given as the source filed them.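 Rule for the calls: active = half-maximal concentration for changing protein binding to DNA, from the fitted dose curve, below 10 micromolar; inactive = the rest.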

The compounds below were run against Nuclear receptor subfamily 1 group D member 1 (Homo sapiens) (UniProt P20393) (assay: modulators of Rev-erb alpha DNA binding, dose response, biochemical, FITC-DNA, fluorescence polarization (AID 1259321)).
Sequence of Nuclear receptor subfamily 1 group D member 1 (Homo sapiens) (P20393 whole entry, looked up): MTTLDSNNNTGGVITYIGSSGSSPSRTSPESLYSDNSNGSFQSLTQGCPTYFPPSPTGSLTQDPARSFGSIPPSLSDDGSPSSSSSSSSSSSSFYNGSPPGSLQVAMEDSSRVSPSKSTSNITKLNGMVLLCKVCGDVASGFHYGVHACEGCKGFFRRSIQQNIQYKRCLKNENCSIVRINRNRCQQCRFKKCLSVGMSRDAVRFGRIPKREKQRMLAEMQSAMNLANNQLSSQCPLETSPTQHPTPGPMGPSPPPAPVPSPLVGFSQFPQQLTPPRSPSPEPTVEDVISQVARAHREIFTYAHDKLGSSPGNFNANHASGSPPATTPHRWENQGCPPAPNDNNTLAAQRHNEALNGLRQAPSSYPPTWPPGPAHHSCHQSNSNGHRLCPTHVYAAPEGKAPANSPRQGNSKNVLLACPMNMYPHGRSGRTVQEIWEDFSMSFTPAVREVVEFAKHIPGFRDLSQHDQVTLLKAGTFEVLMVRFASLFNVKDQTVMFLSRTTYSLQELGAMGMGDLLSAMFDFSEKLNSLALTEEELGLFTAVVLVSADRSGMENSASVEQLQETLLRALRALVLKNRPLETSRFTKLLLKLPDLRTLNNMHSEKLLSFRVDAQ

SMILES | IC50
C/C(=N\NC(=O)COc1cccc(C)c1)c1ccc2ccccc2c1O | 7.63 µM
O=c1c2ccccc2nc2sc(Nc3ccc(F)cc3)nn12 | inactive
CCC(=O)N=c1sc2c(OC)ccc(OC)c2n1C | 2.98 µM
O=C(COc1ncnc2c(Cl)cc(Cl)cc12)NC1CCCCCC1 | 0.847 µM
COC(=O)c1ccccc1NC(=O)c1cn(-c2ccc(C)c(C)c2)c(=O)c2ccccc12 | inactive
COc1ccc(S(=O)(=O)N2CCCCCC2)cc1C(=O)Nc1ccc(C)cn1 | > 40 µM (inactive)
CCCCCn1c(=O)c(C(=O)Nc2ccccc2Cl)c(O)c2ccccc21 | > 40 µM (inactive)
CN1CCS/C1=C\C=C1/SC(=S)N(CC(=O)O)C1=O | inactive
COc1ccc(-c2cc(C(=O)Nc3cccnc3Cl)no2)cc1OC | 1.92 µM
O=C(CSc1nnc(-c2cccs2)n1-c1cccc(Cl)c1)c1cccc2c1OCCO2 | 2.25 µM
COc1ccc(C(=O)/C(C#N)=N/Nc2ccc([N+](=O)[O-])cc2)cc1 | > 40 µM (inactive)
CSc1nnc(N2C(=O)C(O)=C(C(=O)c3ccco3)C2c2cccc(Cl)c2)s1 (centres undefined) | inactive
Cc1nn(C)c(C)c1NC(=O)CSc1nc(-c2ccccc2F)nc2c1cnn2-c1ccccc1 | 3.21 µM
O=C1c2cccc3c(O)ccc(c23)C(=O)N1c1ccc(Cl)cc1 | 2.42 µM
O=C(OCCN1C(=O)c2cccc3c(N4CCOCC4)ccc(c23)C1=O)c1ccc(Cl)cc1Cl | > 40 µM (inactive)
CC(=O)c1ccccc1NC(=O)c1cc(S(=O)(=O)N2CCOCC2)ccc1N1CCCC1 | 4.33 µM
CCOC(=O)/C(C#N)=C/C=C1\C=Cc2ccccc2N1CC | > 40 µM (inactive)
CC1(Cc2ccccc2OC(F)(F)F)C(=O)Nc2ccc(OC(F)(F)F)cc21 (centres undefined) | 4.19 µM
COc1ccc(CNC(=O)C2CCC(CNS(=O)(=O)c3cccc4nsnc34)CC2)cc1 (centres undefined) | 8.16 µM
COc1ccc(C(=O)NNC(=O)C(Cc2ccc(O)cc2)NC(=O)c2ccccc2NC(=O)c2ccc(OC)cc2)cc1 (centres undefined) | inactive
CCc1cc2cc(C)ccc2nc1SCC(=O)NC1CCCC1 | 3.66 µM
O=c1c2ccccc2nc2sc(Nc3cccc(Cl)c3)nn12 | 3.87 µM
CCOc1ccccc1NC(=O)c1cnc2n(c1=O)CCS2 | > 40 µM (inactive)
COCCCNc1nc2c(-c3ccc(C)cc3)nnn2c2ccccc12 | 5.07 µM
O=C(Nc1cccc(C(F)(F)F)c1)c1cc(Br)cc2c1OCC2 | > 40 µM (inactive)
CCC(=O)c1ccc(OCC(=O)Nc2ccccc2C(=O)NC2CC2)cc1 | 4.7 µM

SMILES | IC50
CCN(CC)S(=O)(=O)c1ccc(N2CCCCC2)c(NC(=O)C2CSC3(C)CCC(=O)N23)c1 (centres undefined) | inactive
Cc1cc(C)c2nc(SCC(=O)Nc3ccccc3N3CCOCC3)c(C#N)cc2c1 | 6.99 µM
CN1C(=O)C(=Cc2ccc(N3CCCCCC3)o2)C(=O)N(C)C1=S | inactive
Cc1ccc2cc(C#N)c(SCC(=O)N3CCCc4ccccc43)nc2c1 | 6.5 µM
CC(=O)c1sc(NC(=O)COc2ccc(Br)cc2)nc1C | 4.41 µM
Cc1ccc(NC(=O)c2sc(Cl)nc2-c2ccccc2)cc1C | inactive
COc1ccc2c(c1)c(=O)oc1cc(OCC(=O)NC3CC3)ccc12 | 6.09 µM
O=C(OCCN1C(=O)c2cccc3c(N4CCOCC4)ccc(c23)C1=O)c1ccccc1Cl | 8.24 µM
COc1cc2c(cc1OC)-c1cc3ccc4c(c3c[n+]1CC2)OCO4 | inactive
CC(=O)c1ccc(N2CCN(c3ccc4cc(S(=O)(=O)N5CCC(C)CC5)ccc4n3)CC2)cc1 | 8.62 µM
O=c1cc(-c2ccccc2Cl)oc2c(NS(=O)(=O)c3cccs3)ccc(O)c12 | inactive
CCOc1ccccc1CNC(=O)C1CCN(c2nnc(C)c3c(C)n(-c4ccc(C)cc4)nc23)CC1 | > 40 µM (inactive)
C=CCn1c(SCC(=O)Nc2cc(C)on2)nc2sc(C)c(C)c2c1=O | 5.14 µM
COc1ccc(NC(=O)NNC(=O)c2cc3ccccc3cc2O)cc1 | 9.78 µM
O=C(CSc1nnc2scc(-c3ccccc3)n12)Nc1nsc(-c2ccccc2)n1 | > 40 µM (inactive)
COC(=O)c1sc2nc(-c3ccccc3)c3c(c2c1N)CCCC3 | inactive
COC(=O)c1ccc(NC(=O)c2cn(-c3ccccc3)nc2-c2ccncc2)cc1 | > 40 µM (inactive)
Cc1cccc2cc(C#N)c(SCC#N)nc12 | > 40 µM (inactive)
COc1ccc2nc(SCC(=O)Nc3ccc4sc(C)nc4c3)c(C#N)cc2c1 | 1.98 µM
CSc1ccccc1-c1nnc(-c2ccc(Cl)c(Cl)c2)o1 | 8.81 µM
COc1cc2c(cc1OC)CN(C(=O)CSc1nc(N)c(C#N)cc1C#N)CC2 | inactive
CCn1c(SCC(=O)c2c[nH]c3ccccc23)nnc1-c1cccs1 | > 40 µM (inactive)
O=C(COC(=O)c1cccnc1SCC(=O)NCc1ccccc1)NCc1ccccc1 | 4.11 µM
CCN(CC)c1ccc(C=C2SC(=S)NC2=O)cc1 | 6.72 µM
Cc1ccc(Sc2cnc3ccccc3n2)cc1 | inactive
CNc1ccc2c3c(cccc13)C(=O)N(C)C2=O | 4.6 µM

SMILES | IC50
Cc1ccc2c(c1)c(/C=C/c1cc[n+](C)cc1)c(C)n2C | > 40 µM (inactive)
Clc1ccccc1-c1nn2c(-c3cc(-c4ccccc4)n[nH]3)nnc2s1 | > 40 µM (inactive)
COc1ccc(CCn2c(O)c(C=Nc3ccc(F)cc3)c(=O)[nH]c2=O)cc1OC | inactive
O=C(CCCOc1ccc(Cl)cc1Cl)NNC(=O)c1ccc(NC(=O)c2ccccc2)cc1 | 5.81 µM
Brc1ccc(-c2nn3c(-c4ccccc4)nnc3s2)cc1 | > 40 µM (inactive)
C=CCn1c(SCC(=O)Nc2sccc2C#N)nc2sc(C)c(C)c2c1=O | > 40 µM (inactive)
Fc1c(F)c(C(F)(F)F)c(F)c(F)c1N1CCN(c2ccc3nnc(C(F)(F)F)n3n2)CC1 | 1.71 µM
Cc1cc(NC(=O)CSc2nc3c(C)cccc3cc2C#N)no1 | > 40 µM (inactive)
COC(=O)c1cccc(Cn2ccc3ccc(-c4ccc5ccn(C(=O)c6cccc(OC)c6)c5c4)cc32)c1 | > 40 µM (inactive)
Cc1cc(C)c(NC(=O)CSc2nc3ncc(Br)cc3[nH]2)c(Cl)c1 | 6.22 µM
O=C(CSc1ncnc2c1oc1ccccc12)NCc1ccc(F)cc1 | 1.26 µM
CC(C)(C)c1ccc(C(=O)c2c[nH]c(C(=O)NCc3cccs3)c2)cc1 | 3.88 µM
COc1ccccc1Oc1ccc2c(c1)C(=O)N(c1ccccc1)C2=O | 2.24 µM
Cc1ccc(-n2c(N)c(C#N)c(-c3ccccc3)c(C#N)c2=O)cc1 | > 40 µM (inactive)
Cc1nc(SCC(=O)Nc2ccccc2)c2oc3ccccc3c2n1 | inactive
COC(=O)c1ccc(Cn2ccc3ccc(-c4ccc5ccn(C(=O)C6CCCCC6)c5c4)cc32)cc1 | 6.33 µM
CC1(C)Cc2nc3sc4c(SCC(=O)NC(c5ccccc5)c5ccccc5)ncnc4c3cc2CO1 | > 40 µM (inactive)
Cc1cc(=O)oc2cc(OCC3CC(c4ccc(Br)cc4)=NO3)ccc12 (centres undefined) | 1.04 µM
CCN(CC)C(=O)c1ccc(/C=C/c2c[nH]c3ccccc23)[n+](C)c1 | inactive
Cc1nn(C)c(C)c1NC(=O)CSc1nc(-c2ccccc2Cl)nc2c1cnn2-c1ccccc1 | 0.879 µM
CC(OC(=O)c1cc2c(ccc3ccccc32)oc1=O)c1nc2ccccc2s1 (centres undefined) | inactive
O=C(O)c1ccccc1C(c1ccccc1)c1ccccc1O (centres undefined) | inactive
O=C(CCn1c(=O)c2cccn2c2cccnc21)NCc1cccc(Cl)c1 | > 40 µM (inactive)
COc1ccccc1NC(=O)c1oc2ccccc2c1NC(=O)c1cc(OC)c(OC)c(OC)c1 | 4.77 µM
CCOC(=O)N1CCN(c2ncnc3c2oc2nc(C(C)C)c4c(c23)CCC4)CC1 | 5.3 µM
Cc1ccc2nc(SCC(=O)Nc3ccc4sc(C)nc4c3)c(C#N)cc2c1 | > 40 µM (inactive)

SMILES | IC50
Cc1nc(NC(=O)c2cncc(Br)c2)ccc1Br | inactive
COC(=O)Cn1c(=NC(=O)c2ccc(OC)c(OC)c2)sc2cc(OC)ccc21 | > 40 µM (inactive)
CN(C)c1ccc(C=C2SC(=S)NC2=O)cc1 | inactive
COCCN1C(=O)/C(=C/c2ccc(N3CCCC3)cc2C)SC1=S | 6.19 µM
COc1ccc(NC(=O)CSc2nc(N)c(C#N)cc2C#N)cc1 | 5.76 µM
O=C(NCc1ccccn1)c1ccc(Cn2c(=S)[nH]c3ccc(Br)cc3c2=O)cc1 | 2.63 µM
COc1ccc(C(=O)Cn2cnc3ccc(Cl)cc3c2=O)cc1F | 5 µM
COc1cccc(C(=O)CSc2nnc(-c3cc(OC)cc(OC)c3)o2)c1 | inactive
COc1cc(C(=O)Nc2nnc(-c3sccc3C)s2)cc(OC)c1OC | 4.24 µM
CC1=Nc2ccccc2/C1=C/c1sc(=S)n(-c2cccc(C(=O)O)c2)c1O | > 40 µM (inactive)
Cc1cc(OC(C)C(=O)NCc2ccccn2)c2c(C)c(Cc3ccccc3)c(=O)oc2c1 (centres undefined) | 2.52 µM
CCOc1ccc(N=Nc2c(=O)[nH]n3c(=O)cc(C)[nH]c23)cc1 | > 40 µM (inactive)
Cc1n[nH]c(C)c1N1C(=O)c2cccc3c(N4CCCCCC4)ccc(c23)C1=O | 3.61 µM
CN1C(=O)C(=Cc2ccc(N3CCCCC3)o2)C(=O)N(C)C1=S | inactive
COc1ccc2[nH]c(C(=O)Nc3ccccc3Cl)cc2c1 | > 40 µM (inactive)
COc1ccc(C(=O)c2ccc(OC)c(Br)c2)cc1Br | > 40 µM (inactive)
CCSc1nnc(-c2ccc(Cl)cc2)c2ccccc12 | 7.11 µM
CC1(C)Cc2c(sc3c2c(N)nc(=S)n3Cc2ccc(Br)cc2)CO1 | inactive
COc1cc(-c2ccc3c(=O)c4ccccc4sc3c2)cc(OC)c1OC | 2.86 µM
COc1cccc(CNC(=O)CCCn2c(=S)[nH]c3cc4c(cc3c2=O)OCO4)c1 | 0.616 µM
COc1cc(NC(=O)CCn2c(=S)[nH]c3ccccc3c2=O)cc(OC)c1OC | inactive
Fc1ccc(-n2c(-c3cccs3)nc3nc4ccccc4nc32)cc1 | 4.41 µM
CCOc1ccc(-n2c([S-])c(C(=O)Nc3ccc(S(=O)(=O)N4CCOCC4)cc3)[n+]3cc(C(N)=O)ccc23)cc1 | inactive
Cc1cccc(Nc2nn3c(=O)c4ccccc4nc3s2)c1 | 4.11 µM
CCn1cc(C2N3CC4(C)CN2CC(C)(C3)C4=O)c2ccccc21 (centres undefined) | 2.83 µM
CC(C)(C)c1nc(SCC(=O)Nc2ccc3c(c2)OCCO3)c2ccccc2n1 | 0.88 µM
